Source: patent US20160184322A1 (priority 2013, published 2016)
Where two headings read alike, the source gives them in different places.

Legend:
[1] = system: rats that have suffered a concussion; experiment: Morris Water Maze latency to platform in mTBI (concussion) model (FIG. 8); format: in vivo, rat; conditions: vs vehicle-injured rats
SH-SY5Y cells [2] = experiment: Lactate dehydrogenase release after oxygen and glucose deprivation (OGD); format: cell-based; conditions: for most effective concentrations to attenuate OGD-induced LDH release: both the 0 and 24 hour post-OGD time points
glutathione reductase [3] = experiment: Glutathione reductase assay in rat model of mTBI (three repeated impacts); format: in vivo, Sprague Dawley rats; conditions: 16 mg/kg intraperitoneal 15 minutes after last impact; tissue 24 hours after drug; one-way ANOVA p=0.675
Source text: Glutathione reductase assay was used to measure the antioxidant capacity of PRV-001. Glutathione reductase (GR) is an enzyme which catalyzes the reduction of glutathione (GSSR) to reduced glutathione (GSH). GSH is an important intracellular antioxidant that reacts with oxygen free radicals which are harmful to the cell. High GSH to GSSR ratio is important to cellular survival and GR catalyzes the reduction, therefore becoming an important indicator of antioxidant capacity.
Sprague Dawley rats were obtained from Charles River Laboratories and subjected to three repeated impacts spaced 20 minutes apart. Prior to surgery, animals were anesthetized via inhalation with an initial induction with 5% isofluorane with oxygen at a rate of […] a Matrix 3000 Isofluorane Vaporizer (Midmark, Versailles, Ohio). […] The animal's scalp was shaved and cleaned with a 70% isopropanol solution and 10% betadine solution (Med-Vet International, Mettawa, Ill.). During the surgery, anesthesia was maintained at 2.5% isofluorane with oxygen at a rate of 500-1000 mL/min. The animal's head was then secured in a stereotaxic apparatus (David Kopf Instruments, Tujanga, Calif.) and a medial incision was performed and the scalp pulled back with bulldogs clips over the right frontal and parietal bone. […]

SH-SY5Y cells [4] = experiment: LDH release after t-BOOH-induced oxidative stress; format: cell-based; conditions: 25 μM t-BOOH 6 hours, 24 hours pre-treatment 1-80 μM; for LDH release following exposure to oxidative stress, group differences: ANOVA p=0.214
rats suffering from TBI = conditions: cited from earlier work; for brain water content (measure of edema): 72 hours post-injury, ent-Prog 16 mg/kg
[5] = system: moderate to severe TBI patients; conditions: cited from earlier work
severe TBI patients = conditions: six months; cited from earlier work
rodents following injury = conditions: cited from earlier work; for most beneficial concentration for reducing edema, inflammation, oxidative stress and cell death within the penumbral region: IP, moderate to severe TBI model, 72 hours following injury
[6] = males; cited from earlier work
glutathione reductase [7] = conditions: 72 hours post-injury, compared to all other groups, p<0.01; cited from earlier work
[8] = target: T1, classical progesterone receptor (PR) (Homo sapiens, UniProt P06401); conditions: cited from earlier work
T1 sequence (P06401 1-933): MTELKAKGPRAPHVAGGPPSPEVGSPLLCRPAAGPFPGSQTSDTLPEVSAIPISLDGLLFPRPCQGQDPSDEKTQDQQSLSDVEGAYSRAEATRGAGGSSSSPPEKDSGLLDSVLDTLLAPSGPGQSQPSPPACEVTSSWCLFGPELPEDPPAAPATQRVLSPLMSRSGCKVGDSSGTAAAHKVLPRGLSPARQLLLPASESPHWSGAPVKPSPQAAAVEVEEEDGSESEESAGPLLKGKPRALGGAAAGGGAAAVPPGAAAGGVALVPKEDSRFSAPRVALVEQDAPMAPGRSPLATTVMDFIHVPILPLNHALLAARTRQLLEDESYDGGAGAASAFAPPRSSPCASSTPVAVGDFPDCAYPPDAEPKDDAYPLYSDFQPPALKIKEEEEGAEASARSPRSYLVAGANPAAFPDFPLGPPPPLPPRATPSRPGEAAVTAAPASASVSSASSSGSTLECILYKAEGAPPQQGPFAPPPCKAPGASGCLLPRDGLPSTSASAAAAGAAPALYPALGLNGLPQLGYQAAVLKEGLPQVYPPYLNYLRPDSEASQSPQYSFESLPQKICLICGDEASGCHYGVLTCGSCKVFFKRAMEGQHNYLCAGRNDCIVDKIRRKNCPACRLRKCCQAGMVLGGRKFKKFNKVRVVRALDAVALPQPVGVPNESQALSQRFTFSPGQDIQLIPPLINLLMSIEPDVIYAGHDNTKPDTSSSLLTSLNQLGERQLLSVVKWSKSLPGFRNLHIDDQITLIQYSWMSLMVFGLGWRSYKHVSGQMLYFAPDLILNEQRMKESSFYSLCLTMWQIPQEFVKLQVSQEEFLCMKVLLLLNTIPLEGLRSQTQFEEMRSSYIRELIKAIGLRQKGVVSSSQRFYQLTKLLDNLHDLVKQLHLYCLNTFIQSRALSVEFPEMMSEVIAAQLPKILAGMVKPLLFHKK

Which “latency to platform (Morris Water Maze)” value ([1]; post-acutely (15 minutes post)) does the source give for `CC(=O)[C@H]1CC[C@H]2[C@@H]3CCC4=CC(=O)CC[C@]4(C)[C@H]3CC[C@]12C` [Prog, progesterone] here?
The value was “decreases latency to platform”.

What about the “latency to platform (Morris Water Maze)” value ([1]; prophylactically (15 minutes prior)) of the same compound?
Its value is “decreases latency to platform”.

What about the “LDH release compared to other treated groups” value (SH-SY5Y cells [2]) of the same compound?
The value was “significant reduction”.

What about the “promoting cellular survival following oxygen and glucose deprivation, PRV-001 compared with progesterone” value (SH-SY5Y cells [2]) of the same compound?
Its value is “equally effective”.

What about the “LDH release compared to other treated groups” value (SH-SY5Y cells [2]; 0 h post-OGD, 1 μM progesterone vs 80 uM progesterone) of the same compound?
Its value is “significant reduction”.

And the “LDH release compared to other treated groups” value (SH-SY5Y cells [2]; 0 h post-OGD, 10 μM progesterone vs 80 μM progesterone)?
Its value is “significant reduction”.

And the “LDH release compared to control cells that did not undergo OGD” value (SH-SY5Y cells [2]; 0 h post-OGD, 20 μM and 80 μM progesterone)?
The value was “significantly higher”.

What about the “LDH release compared to other treated groups” value (SH-SY5Y cells [2]; 0 h post-OGD, 20 μM progesterone vs 80 μM progesterone) of the same compound?
Its value is “significant reduction”.

And the “LDH release compared to control cells not exposed to OGD” value (SH-SY5Y cells [2]; 0 h post-OGD, 1, 5, 10 and 40 μM progesterone)?
The value was “not significantly different”.

What about the “LDH release compared to untreated cells exposed to OGD” value (SH-SY5Y cells [2]; 0 h post-OGD, all progesterone concentrations except 80 μM) of the same compound?
Its value is “significant reduction”.

What about the “LDH release compared to control cells not exposed to OGD” value (SH-SY5Y cells [2]; 24 hours post-OGD, 1 μM and 40 μM progesterone) of the same compound?
The value was “increased”.

What about the “LDH release compared to other treated groups” value (SH-SY5Y cells [2]; 24 hours post-OGD, 10 μM progesterone vs 40 μM progesterone) of the same compound?
The value was “significant reduction”.

What about the “LDH release compared to untreated cells exposed to OGD” value (SH-SY5Y cells [2]; 24 hours post-OGD, 40 μM progesterone) of the same compound?
Its value is “except for those treated with 40 μM progesterone”.

What about the “LDH release compared to other treated groups” value (SH-SY5Y cells [2]; 24 hours post-OGD, 80 μM progesterone vs 40 μM progesterone) of the same compound?
The value was “significant reduction”.

What about the “LDH release compared to control cells not exposed to OGD” value (SH-SY5Y cells [2]; 24 hours post-OGD, 5, 10, 20 and 80 μM progesterone) of the same compound?
The value was “not significantly different”.

What about the “LDH release compared to untreated cells exposed to OGD” value (SH-SY5Y cells [2]; 24 hours post-OGD, all progesterone groups except 40 μM) of the same compound?
Its value is “significant reduction”.

And the “most effective concentrations to attenuate OGD-induced LDH release” value (SH-SY5Y cells [2])?
The value was 5 µM and 10 µM.

What about the “glutathione reductase activity (Δ Absorbance 340 nm/min), difference between groups” value (glutathione reductase [3]) of the same compound?
Its value is “failed to reveal a significant difference”.

What about the “oxidative stress-induced cellular damage and death (LDH release), trend” value (SH-SY5Y cells [4]) of the same compound?
Its value is “trend towards amelioration”.

What about the “LDH release following exposure to oxidative stress, group differences” value (SH-SY5Y cells [4]) of the same compound?
Its value is “significant group differences were not observed”.

What about the “brain water content (measure of edema)” value (rats suffering from TBI) of the same compound?
The value was “normalizes brain water content”.

And the “30 days post-injury outcomes (Glasgow Outcome Scale-Extended and Disability Rating Scale)” value ([5]; moderate TBI patients)?
Its value is “better outcomes”.

What about the reduction in mortality ([5]; moderate to severe TBI patients, 72 hours of continuous intravenous Prog) of the same compound?
The reduction in mortality was 50%.

What about the “30 days post-injury outcomes (Glasgow Outcome Scale-Extended and Disability Rating Scale)” value ([5]; patients with severe brain injuries) of the same compound?
Its value is “little measurable difference”.

What about the neurological outcomes long-term (severe TBI patients) of the same compound?
The neurological outcomes long-term was “better neurological outcomes”.

What about the “most beneficial concentration for reducing edema, inflammation, oxidative stress and cell death within the penumbral region” value (rodents following injury) of the same compound?
The value was 16 mg/kg.

What about the edema (rodents following injury; both rodent sexes following injury) of the same compound?
The edema was “effectively attenuates”.

What about the “inflammatory factors (TNF-a and IL-10)” value (rodents following injury; following injury) of the same compound?
The value was “inhibiting”.

What about the “presence of factors of cell death (caspase-3) and gliosis (GFAP)” value (rodents following injury; following injury) of the same compound?
Its value is “decreased”.

What about the “Neurological Severity Score (motor and cognitive functioning)” value (rodents following injury; rats following injury) of the same compound?
Its value is “significant improvements”.

What about the “conversion of testosterone to dihydrotestosterone” value [6] of the same compound?
Its value is “inhibits”.

What about the “size of reproductive organs” value [6] of the same compound?
Its value is “reduces”.

What about the spermatogenesis [6] of the same compound?
The spermatogenesis was “suppresses”.

With `CC(=O)[C@H]1CC[C@H]2[C@@H]3CC[C@H]4C[C@H](O)CC[C@]4(C)[C@H]3CC[C@]12C` [allopregnanolone] as the compound, how does the “brain water content (measure of edema)” value (rats suffering from TBI) read?
The value was “normalizes brain water content”.

What about the “presence of factors of cell death (caspase-3) and gliosis (GFAP)” value (rodents following injury; following injury) of the same compound?
Its value is “decreased”.

Which results are given for `CC(=O)[C@@H]1CC[C@@H]2[C@H]3CCC4=CC(=O)CC[C@@]4(C)[C@@H]3CC[C@]21C` [ent-Prog, ent-progesterone]?
LDH release compared to control cells that did not undergo OGD (SH-SY5Y cells [2]): significantly higher; LDH release compared to other treated groups (SH-SY5Y cells [2]): significant reduction; LDH release compared to untreated cells exposed to OGD (SH-SY5Y cells [2]): significant reduction; promoting cellular survival following oxygen and glucose deprivation, PRV-001 compared with progesterone (SH-SY5Y cells [2]): equally effective; most effective concentrations to attenuate OGD-induced LDH release (SH-SY5Y cells [2]): 5 µM and 10 µM; glutathione reductase activity (Δ Absorbance 340 nm/min), difference between groups (glutathione reductase [3]): failed to reveal a significant difference; oxidative stress-induced cellular damage and death (LDH release), trend (SH-SY5Y cells [4]): trend towards amelioration; LDH release following exposure to oxidative stress, group differences (SH-SY5Y cells [4]): significant group differences were not observed; brain water content (measure of edema) (rats suffering from TBI): normalizes brain water content; reduction of moderate to severe brain injury-induced edema, compared with Prog (rats suffering from TBI; moderate to severe TBI): equal efficacy to Prog; anti-oxidant activity of glutathione reductase (glutathione reductase [7]): significantly increases; activation of the classical progesterone receptor (PR) [8]: does not activate; most beneficial concentration for reducing edema, inflammation, oxidative stress and cell death within the penumbral region (rodents following injury): 16 mg/kg
